Read-outs that look alike come from different tables or passages of the source.
Molecular target: BRD4 (BD1+BD2) bromodomain (Homo sapiens (Human), UniProt O60885)
Assay: BRD4 binding inhibition (AlphaScreen, GST-BRD4 vs tetraacetylated histone H4 peptide)
Protocol: A mixture comprising 100 nM GST-BRD4 (BD1+BD2) and 100 nM biotinylated acetyl-histone H4 (Lys5,8,12,16) peptide was prepared in assay buffer (50 mM HEPES pH 7.4; 25 mM NaCl; 0.05% Tween 20; 0.1% bovine serum albumin (BSA); 10 mM dithiothreitol (DTT)). After adding 6 μl of the mixture to the diluent, 6 μl of the pre-mixed AlphaLISA Glutathione Acceptor Beads and AlphaScreen Streptavidin Donor Beads (PerkinElmer, 10 μg/ml in assay buffer, respectively) was added thereto. The samples were incubated in the dark at room temperature for 30 minutes (shaking at 300 rpm). Then, the signals were measured with PerkinElmer Envision HTS Multilabel Reader using an alpha screen protocol of PerkinElmer. Each plate contained the negative control in which biotinylated acetyl-histone H4 peptide and GST-BRD4 (BD1+BD2) were replaced by assay buffer. In the case of using the software GraphPad Prism for calculation, the negative control point was input as a low standard value. The positive control (probe molecule l-BET762 containing protein/peptide mixture) proceeded to pipetting.

[1] = GST-BRD4 (BD1+BD2) / biotinylated acetyl-histone H4 (Lys5,8,12,16) peptide, read-out: IC50, BRD4 binding inhibition
[2] = GST-BRD4 (BD1+BD2) vs biotinylated acetyl-histone H4 peptide, AlphaScreen, read-out: BRD4 IC50

SMILES | IC50 [1] | IC50 [2]
COc1ccc2c(c1)nc(NCCCCNC(=O)[C@H](C(C)C)N1CCC(CCO)CC1)c1nnc(C)n12 [Example 317, 2-(S)-[4-(2-hydroxy-ethyl)-piperidine-1-yl]-N-[4-(7-methoxy-1-methyl-[1,2,4]triazolo[4,3-a]quinoxaline-4-ylamino)-butyl]-3-methyl-butyramide] | ≤ 50 nM | 31 nM
Cc1nnc2c(NCCCCNC(=O)OC(C)(C)C)nc3cc(N)ccc3n12 [Example 243, [4-(7-amino-1-methyl-[1,2,4]triazolo[4,3-a]quinoxaline-4-ylamino)-butyl]-carbamic acid-tert-butylester] |  | 65 nM
COc1ccc2nc(NCCCCNC(=O)OC(C)(C)C)c3nnc(C)n3c2c1 [Example 121, [4-(8-methoxy-1-methyl-[1,2,4]triazolo[4,3-a]quinoxaline-4-ylamino)-butyl]-carbamic acid-tert-butylester] |  | 55 nM
COc1ccc2c(c1)nc(NCCCCNC(=O)C(C)(C)O)c1nnc(C)n12 [Example 297, 2-hydroxy-N-[4-(7-methoxy-1-methyl-[1,2,4]triazolo[4,3-a]quinoxaline-4-ylamino)-butyl]-2-methyl-propionamide] | ≤ 50 nM | 27 nM
Cc1nnc2c(NCCCCNC(=O)OC(C)(C)C)nc3ccc(Cl)cc3n12 [Example 54, [4-(8-chloro-1-methyl-[1,2,4]triazolo[4,3-a]quinoxaline-4-ylamino)-butyl]-carbamic acid-tert-butylester] | ≤ 50 nM | 50 nM
Cc1nnc2c(NCCCCNC(=O)c3ccccc3)nc3cc(Cl)c(Cl)cc3n12 [Example 31, N-[4-(7,8-dichloro-1-methyl-[1,2,4]triazolo[4,3-a]quinoxaline-4-ylamino)-butyl]-benzamide] | ≤ 50 nM | 31 nM
COc1cc(C(F)(F)F)cc2c1nc(NCCCCNC(=O)CC(C)C)c1nnc(C)n12 [Example 145, N-[4-(6-methoxy-1-methyl-8-trifluoromethyl-[1,2,4]triazolo[4,3-a]quinoxaline-4-ylamino)-butyl]-3-methyl-butyramide] | ≤ 50 nM | 47 nM
Cc1nnc2c(NCCCCNC(=O)OC(C)(C)C)nc3ccc(C(=O)Nc4ccccc4)cc3n12 [Example 538, [4-(1-methyl-8-phenylcarbamoyl-[1,2,4]triazolo[4,3-a]quinoxaline-4-ylamino)-butyl]-carbamic acid-tert-butylester] |  | 69 nM
COc1ccc2c(c1)nc(NCCCCNC(=O)OC(C)C)c1nnc(C(C)C)n12 [Example 628, [4-(1-isopropyl-7-methoxy-[1,2,4]triazolo[4,3-a]quinoxaline-4-ylamino)-butyl]-carbamic acid isopropylester] | ≤ 50 nM | 48 nM
Cc1nnc2c(NCCCCNC(=O)c3ccc(Cl)cc3)nc3ccccc3n12 [Example 14, 4-chloro-N-[4-(1-methyl-[1,2,4]triazolo[4,3-a]quinoxaline-4-ylamino)-butyl]-benzamide] | ≤ 50 nM | 41 nM
Cc1nnc2c(NCCCCOC(=O)C(C)C)nc3ccccc3n12 [Example 632] | ≤ 50 nM | 44 nM
COCCOc1ccc2c(c1)nc(NCCCCNC(=O)Nc1ccccc1)c1nnc(C)n12 [Example 427, 3-{4-[7-(2-methoxy-ethoxy)-1-methyl-[1,2,4]triazolo[4,3-a]quinoxaline-4-ylamino]-butyl}-1-phenyl-urea] | ≤ 50 nM | 17 nM
COc1ccc2c(c1)nc(NCCCCNC(=O)[C@H](Cc1ccc(O)cc1)NC(=O)OC(C)(C)C)c1nnc(C)n12 [Example 325, (S)-{2-(4-hydroxy-phenyl)-1-[4-(7-methoxy-1-methyl-[1,2,4]triazolo[4,3-a]quinoxaline-4-ylamino)-butylcarbamoyl]-ethyl}-carbamic acid-tert-butylester] |  | 71 nM
COc1cc2c(cc1C)nc(NCCCCNC(=O)[C@H](O)C(C)C)c1nnc(C)n12 [Example 152, 2-(R)-hydroxy-N-[4-(8-methoxy-1,7-dimethyl-[1,2,4]triazolo[4,3-a]quinoxaline-4-ylamino)-butyl]-3-methyl-butyramide] |  | 96 nM
COCCn1c(-c2ccc3c(c2)nc(NCCCCNC(=O)CC(C)C)c2nnc(C)n23)nc2ccccc21 [Example 241, N-(4-{7-[1-(2-methoxy-ethyl)-1H-benzoimidazole-2-yl]-1-methyl-[1,2,4]triazolo[4,3-a]quinoxaline-4-ylamino}-butyl)-3-methyl-butyramide] | ≤ 10 nM | 7 nM
Cc1nnc2c(NCCCCNC(=O)OC(C)(C)C)nc3cc(C(=O)NC(C)(C)C)ccc3n12 [Example 203, [4-(7-tert--butylcarbamoyl-1-methyl-[1,2,4]triazolo[4,3-a]quinoxaline-4-ylamino)-butyl]-carbamic acid-tert-butylester] | ≤ 50 nM | 42 nM
COCCOc1ccc2c(c1)nc(NCCCCNC(=O)C(C)C)c1nnc(C)n12 [Example 376, {4-[7-(2-methoxy-ethoxy)-1-methyl-[1,2,4]triazolo[4,3-a]quinoxaline-4-ylamino]-butyl}-isobutyramide] | ≤ 50 nM | 
Cc1nnc2c(NCCCCNC(=O)c3ccc(Cl)nc3Cl)nc3ccccc3n12 [Example 19, 2,6-dichloro-N-[4-(1-methyl-[1,2,4]triazolo[4,3-a]quinoxaline-4-ylamino)-butyl]-nicotinamide] | ≤ 50 nM | 36 nM
COc1ccc2c(c1)nc(NCCCCC(=O)NCc1ccccc1)c1nnc(C)n12 [Example 658] | ≤ 50 nM | 26 nM
Cc1ccc2nc(NCCCCNC(=O)NC(C)(C)C)c3nnc(C)n3c2c1 [Example 44, 1-tert--butyl-3-[4-(1,8-dimethyl-[1,2,4]triazolo[4,3-a]quinoxaline-4-ylamino)-butyl]-urea] |  | 72 nM
COc1cc2nc(NCCCCNC(=O)SC(C)C)c3nnc(C)n3c2cc1OC [Example 110, [4-(7,8-dimethoxy-1-methyl-[1,2,4]triazolo[4,3-a]quinoxaline-4-ylamino)-butyl]-thiocarbamic acid-S-isopropylester] | ≤ 50 nM | 35 nM

Continued by falling IC50 [2], values first:

IC50 [1] | IC50 [2] | SMILES
 | 98 nM | COCCOc1ccc2c(c1)nc(NCCCCN)c1nnc(C)n12 [Example 364, N^1-[7-(2-methoxy-ethoxy)-1-methyl-[1,2,4]triazolo[4,3-a]quinoxaline-4-yl]-butane-1,4-diamine ditrifluoroacetic acid]
 | 89 nM | Cc1nnc2c(NCCCCNC(=O)c3ccccc3Cl)nc3cc(Cl)c(Cl)cc3n12 [Example 32]
 | 81 nM | Cc1nnc2c(NCCCCNC(=O)NC(C)(C)C)nc3ccccc3n12 [Example 22, 1-tert-butyl-3-[4-(1-methyl-[1,2,4]triazolo[4,3-a]quinoxaline-4-ylamino)-butyl]-urea]
 | 63 nM | COc1ccc2c(c1)nc(NCCCCNC(=O)COC(C)=O)c1nnc(C)n12 [Example 303, acetic acid-[4-(7-methoxy-1-methyl-[1,2,4]triazolo[4,3-a]quinoxaline-4-ylamino)-butylcarbamoyl]-methylester]
 | 56 nM | COc1cc2nc(NCCCCCNC(=O)OC(C)(C)C)c3nnc(C)n3c2cc1OC [Example 642, [5-(7,8-dimethoxy-1-methyl-[1,2,4]triazolo[4,3-a]quinoxaline-4-ylamino)-pentyl]-carbamic acid-tert-butylester]
≤ 50 nM | 47 nM | CCNC(=O)NCCCCNc1nc2cc(OC)c(OC)cc2n2c(C)nnc12 [Example 89, 1-[4-(7,8-dimethoxy-1-methyl-[1,2,4]triazolo[4,3-a]quinoxaline-4-ylamino)-butyl]-3-ethyl-urea]
≤ 50 nM | 46 nM | COc1ccc2c(c1)nc(NCCCCNC(=O)OC(C)C)c1nnc(C(F)(F)F)n12 [Example 589, [4-(7-methoxy-1-trifluoromethyl-[1,2,4]triazolo[4,3-a]quinoxaline-4-ylamino)-butyl]-carbamic acid isopropylester]
≤ 50 nM | 40 nM | COc1c(C)ccc2c1nc(NCCCCNC(=O)c1ccccc1F)c1nnc(C)n12 [Example 139, 2-fluoro-N-[4-(6-methoxy-1,7-dimethyl-[1,2,4]triazolo[4,3-a]quinoxaline-4-ylamino)-butyl]-benzamide]
≤ 50 nM | 35 nM | COc1cc2nc(NCCCCNC(=O)CC(C)C)c3nnc(C)n3c2c(OC)c1OC [Example 488, 3-methyl-N-[4-(7,8,9-trimethoxy-1-methyl-[1,2,4]triazolo[4,3-a]quinoxaline-4-ylamino)-butyl]-butyramide]
≤ 50 nM | 21 nM | Cc1nnc2c(NCCCCNC(=O)[C@H](O)C(C)C)nc3cc(OCCN4CCOCC4)ccc3n12 [Example 434, 2-(R)-hydroxy-N-{4-[7-(2-morpholine-4-yl-ethoxy)-1-methyl-[1,2,4]triazolo[4,3-a]quinoxaline-4-ylamino]-butyl}-3-methyl-butyramide]
≤ 10 nM | 4 nM | COc1ccc2nc(NCCCCNC(=O)[C@@H](O)C(C)C)c3nnc(C)n3c2c1 [Example 126, 2-(S)-hydroxy-N-[4-(8-methoxy-1-methyl-[1,2,4]triazolo[4,3-a]quinoxaline-4-ylamino)-butyl]-3-methyl-butyramide]

Source: US11028090B2 (Dong Wha Pharm. Co., Ltd., priority 2017, dated 2021)
